Source: US8987445B2, “Sulfonamide compounds having TRPM8 antagonistic activity” (Mitsubishi Tanabe Pharma Corporation, priority 2011, dated 2015)

The compounds below were run against human TRPM8 (Homo sapiens (Human), UniProt Q7Z2W7) (assay: TRPM8 inhibition assay (menthol-induced calcium influx, FDSS)). Conditions: HEK293 cells stably expressing human TRPM8; 100 μM menthol; Fura-2AM Ca2+ signal; read-out: TRPM8 Blocking Test (IC50).
Assay type: cell-based
Protocol: The functional activity of compounds was determined by measuring changes in intracellular calcium concentration using a Ca^2+ sensitive fluorescent dye. The changes in fluorescent signal were monitored by the cell imaging technology by Hamamatsu Photonics's Functional Drug Screening System (FDSS). […] HEK293 cells stably expressing human TRPM8 were grown in flasks. On assay day, the culture medium was removed, and cells were washed with phosphate-buffered saline (PBS) and harvested with PBS containing 2 mM ethylenediaminetetraacetic acid, disodium salt (EDTA, 2Na). […] Subsequently, suspended 20,000 to 50,000 cells per well were incubated with test compound (at varying concentrations) in each well for 20 min at 37° C. Changes in intracellular Ca^2+ evoked by 100 μM menthol were measured for 2 min using FDSS. IC50 vales were determined from four-point concentration-response studies. Curves were generated using the average of quadruplicate wells for each data point.

Sequence of human TRPM8 (Q7Z2W7 whole entry): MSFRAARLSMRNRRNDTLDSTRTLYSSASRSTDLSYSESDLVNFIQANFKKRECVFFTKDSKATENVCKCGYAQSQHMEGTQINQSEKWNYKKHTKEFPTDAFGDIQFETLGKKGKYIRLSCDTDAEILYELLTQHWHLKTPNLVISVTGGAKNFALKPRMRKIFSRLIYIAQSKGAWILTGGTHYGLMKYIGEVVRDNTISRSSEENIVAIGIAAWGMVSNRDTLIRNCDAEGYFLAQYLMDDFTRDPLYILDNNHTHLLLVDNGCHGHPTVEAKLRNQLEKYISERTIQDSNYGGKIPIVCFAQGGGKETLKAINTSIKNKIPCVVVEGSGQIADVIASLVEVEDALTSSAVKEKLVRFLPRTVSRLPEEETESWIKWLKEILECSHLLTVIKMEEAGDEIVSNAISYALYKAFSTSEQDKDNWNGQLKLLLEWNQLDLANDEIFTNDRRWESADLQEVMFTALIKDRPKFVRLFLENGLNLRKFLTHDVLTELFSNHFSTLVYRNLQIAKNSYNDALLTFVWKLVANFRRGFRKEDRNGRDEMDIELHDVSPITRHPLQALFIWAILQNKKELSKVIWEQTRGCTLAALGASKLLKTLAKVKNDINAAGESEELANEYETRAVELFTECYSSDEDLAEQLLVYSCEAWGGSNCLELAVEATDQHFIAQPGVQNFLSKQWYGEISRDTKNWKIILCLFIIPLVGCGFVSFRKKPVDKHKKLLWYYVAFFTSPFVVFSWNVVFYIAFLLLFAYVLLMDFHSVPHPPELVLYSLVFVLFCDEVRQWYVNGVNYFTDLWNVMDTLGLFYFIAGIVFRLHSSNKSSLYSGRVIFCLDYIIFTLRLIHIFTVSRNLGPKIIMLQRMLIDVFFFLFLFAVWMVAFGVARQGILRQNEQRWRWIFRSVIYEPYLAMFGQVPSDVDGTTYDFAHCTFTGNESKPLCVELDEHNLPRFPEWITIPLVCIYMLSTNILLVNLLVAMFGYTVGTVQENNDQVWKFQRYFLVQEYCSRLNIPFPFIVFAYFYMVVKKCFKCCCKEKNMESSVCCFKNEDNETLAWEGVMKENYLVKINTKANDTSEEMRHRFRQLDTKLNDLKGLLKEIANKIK

Row | SMILES | IC50 [nM]
1 | O=C(O)c1ccc(S(=O)(=O)N(Cc2ccc(OC(F)(F)F)cc2)c2ncc(Cl)c3ccccc23)cc1 [Example 130] | 94
2 | Cc1cc2ccc(Cl)cc2nc1N(Cc1ccc(OC(F)(F)F)cc1)S(=O)(=O)c1ccc(C(=O)O)cc1 [Example 134] | 695
3 | Cc1ccc2cnc(N(Cc3ccc(OC(F)(F)F)cc3)S(=O)(=O)c3ccc(C(=O)O)cc3)c(C)c2c1 [Example 135] | 136
4 | Cc1cccc2c(C)c(N(Cc3ccc(OC(F)(F)F)cc3)S(=O)(=O)c3ccc(C(=O)O)cc3)ncc12 [Example 136] | 31
5 | Cc1c(N(Cc2ccccc2)S(=O)(=O)c2ccc(C(=O)O)cc2)nc(C2CC2)c2ccccc12 [Example 139] | 12
6 | CCc1cc2ccccc2nc1N(Cc1ccc(OC(F)(F)F)cc1)S(=O)(=O)c1ccc(C(=O)O)cc1 [Example 144] | 54
7 | Cc1cc2ccc(F)cc2nc1N(Cc1ccc(OC(F)(F)F)cc1)S(=O)(=O)c1ccc(C(=O)O)cc1 [Example 146] | 70
8 | CC(C)c1nc(N(Cc2ccc(OC(F)(F)F)cc2)S(=O)(=O)c2ccc(C(=O)O)cc2)c(C(C)C)c2ccccc12 [Example 150] | 48
9 | CCc1c(N(Cc2ccc(OC(F)(F)F)cc2)S(=O)(=O)c2ccc(C(=O)O)cc2)ncc2ccccc12 [Example 155] | 6.2
10 | Cc1c(N(Cc2ccc(C(C)(O)C(F)(F)F)c(F)c2)S(=O)(=O)c2ccc(C(=O)O)cc2)ncc2ccccc12 (stereo not shown) [Example 169] | 55
11 | Cc1c(N(Cc2ccc(CC3CC3)cc2F)S(=O)(=O)c2ccc(C(=O)O)cc2)ncc2ccccc12 [Example 171] | 7.1
12 | Cc1c(N(Cc2cc(F)c3c(c2)CCC3)S(=O)(=O)c2ccc(C(=O)O)cc2)ncc2ccccc12 [Example 175] | 4.4
13 | Cc1c(N(Cc2ccc3c(Cl)n[nH]c3c2)S(=O)(=O)c2ccc(C(=O)O)cc2)ncc2ccccc12 [Example 176] | 21
14 | Cc1c(N(C2CCc3cc(OC(F)(F)F)ccc32)S(=O)(=O)c2ccc(C(=O)O)cc2)ncc2ccccc12 (stereo not shown) [Example 179] | 2.1
15 | Cc1cc2ccccc2nc1N(Cc1ccc2c(c1)CCCC2)S(=O)(=O)c1ccc(C(=O)O)cc1 [Example 180] | 6.9
16 | Cc1cc2ccccc2nc1N(Cc1ccc(CC2CC2)cc1)S(=O)(=O)c1ccc(C(=O)O)cc1 [Example 183] | 7.7
17 | O=C(O)c1ccc(S(=O)(=O)N(c2ncc3ccccc3c2C2CC2)C2CCc3cc(OC(F)(F)F)ccc32)cc1 (stereo not shown) [Example 187] | 128
18 | Cc1c(N(Cc2ccc(C(F)(F)C3CCC3)cc2)S(=O)(=O)c2ccc(C(=O)O)cc2)ncc2ccccc12 [Example 189] | 1.7
19 | Cc1nc2ccc(CN(c3ncc4ccccc4c3C)S(=O)(=O)c3ccc(C(=O)O)cc3)cc2s1 [Example 190] | 148
20 | Cc1c(N(Cc2ccc(CC3(C(F)(F)F)CC3)cc2)S(=O)(=O)c2ccc(C(=O)O)cc2)ncc2ccccc12 [Example 193] | 3.9
21 | Cc1c(N(Cc2cc3c(F)cc(F)cc3s2)S(=O)(=O)c2ccc(C(=O)O)cc2)ncc2ccccc12 [Example 194] | 1.3
22 | Cc1c(N(Cc2cc3cc(F)cc(F)c3s2)S(=O)(=O)c2ccc(C(=O)O)cc2)ncc2ccccc12 [Example 195] | 6
23 | Cc1c(N(Cc2cc3c(Cl)cccc3s2)S(=O)(=O)c2ccc(C(=O)O)cc2)ncc2ccccc12 [Example 196] | 2.2
24 | Cc1c(N(Cc2cc3cc(Cl)ccc3s2)S(=O)(=O)c2ccc(C(=O)O)cc2)ncc2ccccc12 [Example 200] | 5.4
25 | Cc1c(N(Cc2ccc(C(F)(F)C3CC3)c(Cl)c2)S(=O)(=O)c2ccc(C(=O)O)cc2)ncc2ccccc12 [Example 201] | 0.6
26 | Cc1cc2ccccc2nc1N(Cc1cccc(C(F)(F)C2CC2)c1)S(=O)(=O)c1ccc(C(=O)O)cc1 [Example 206] | 21
27 | Cc1cc2ccccc2nc1N(Cc1ccc(F)c(C(F)(F)C2CC2)c1)S(=O)(=O)c1ccc(C(=O)O)cc1 [Example 208] | 9.6
28 | Cc1c(N(Cc2ccc(OC(F)(F)F)cc2)S(=O)(=O)c2ccc(C(=O)O)cc2)nc(-c2cccnc2)c2ccccc12 [Example 213] | 116

Continued by falling IC50, values first:

Row | IC50 [nM] | SMILES
29 | 987 | Cn1ccc2c(N(Cc3ccc(OC(F)(F)F)cc3)S(=O)(=O)c3ccc(C(=O)O)cc3)ncc(Cl)c21 [Example 211]
30 | 601 | Cc1c(N(Cc2ccc3cn[nH]c3c2)S(=O)(=O)c2ccc(C(=O)O)cc2)ncc2ccccc12 [Example 178]
31 | 287 | O=C(O)c1ccc(S(=O)(=O)N(Cc2ccc(OC(F)(F)F)cc2)c2cc3c(Cl)cccc3c(Br)n2)cc1 [Example 148]
32 | 155 | Cc1nc2cc(CN(c3ncc4ccccc4c3C)S(=O)(=O)c3ccc(C(=O)O)cc3)ccc2s1 [Example 188]
33 | 131 | O=C(O)c1ccc(S(=O)(=O)N(Cc2ccc(OC(F)(F)F)cc2)c2cc3ccccc3c(Br)n2)cc1 [Example 143]
34 | 109 | Cc1ccc2c(C)c(N(Cc3ccc(OC(F)(F)F)cc3)S(=O)(=O)c3ccc(C(=O)O)cc3)ncc2c1 [Example 131]
35 | 95 | CC(=O)c1ccc(S(=O)(=O)N(Cc2ccc(OC(F)(F)F)cc2)c2ncc3ccccc3c2C)cc1 [Example 152, 4-acetyl-N-(4-methylisoquinolin-3-yl)-N-[4-(trifluoromethoxy)benzyl]benzenesulfonamide]
36 | 91 | Cc1cc2cc(F)ccc2nc1N(Cc1ccc(OC(F)(F)F)cc1)S(=O)(=O)c1ccc(C(=O)O)cc1 [Example 145]
37 | 78 | Cc1c(N(Cc2ccc3c(c2)CCC3(O)C(F)(F)F)S(=O)(=O)c2ccc(C(=O)O)cc2)ncc2ccccc12 (stereo not shown) [Example 173]
38 | 75 | O=C(O)c1ccc(S(=O)(=O)N(Cc2ccc(OC(F)(F)F)cc2)c2ncc(Cl)c3sccc23)cc1 [Example 212]
39 | 40 | Cc1c(N(Cc2ccc(C(O)(C(F)(F)F)C(F)(F)F)cc2)S(=O)(=O)c2ccc(C(=O)O)cc2)ncc2ccccc12 [Example 128]
40 | 35 | Cc1c(N(Cc2ccc(C(C)(O)C(F)(F)C(F)(F)F)cc2)S(=O)(=O)c2ccc(C(=O)O)cc2)ncc2ccccc12 (stereo not shown) [Example 174]
41 | 31 | Cc1c(N(Cc2cccc(C(F)(F)C3CC3)c2)S(=O)(=O)c2ccc(C(=O)O)cc2)ncc2ccccc12 [Example 205]
42 | 30 | Cc1c(N(Cc2ccc(C(O)(C3CC3)C(F)(F)F)cc2)S(=O)(=O)c2ccc(C(=O)O)cc2)ncc2ccccc12 (stereo not shown) [Example 177]
43 | 23 | O=C(O)c1ccc(S(=O)(=O)N(Cc2ccc(OC(F)(F)F)cc2)c2cc3ccccc3cn2)cc1 [Example 156]
44 | 15 | Cc1c(N(Cc2ccc(OC(F)(F)F)cc2)S(=O)(=O)c2ccc(C(=O)O)cc2)nc(Br)c2ccccc12 [Example 129]
45 | 15 | Cc1c(N(Cc2ccc(C(C)(O)C(F)(F)F)c(Cl)c2)S(=O)(=O)c2ccc(C(=O)O)cc2)ncc2ccccc12 (stereo not shown) [Example 172]
46 | 11 | Cc1c(N(Cc2cc3ccc(Cl)cc3s2)S(=O)(=O)c2ccc(C(=O)O)cc2)ncc2ccccc12 [Example 198]

Row | IC50 [nM] | SMILES
47 | 11 | Cc1c(N(Cc2ccc(F)c(C(F)(F)C3CC3)c2)S(=O)(=O)c2ccc(C(=O)O)cc2)ncc2ccccc12 [Example 207]
48 | 8.8 | Cc1c(N(Cc2ccc(COC(F)(F)F)cc2)S(=O)(=O)c2ccc(C(=O)O)cc2)ncc2ccccc12 [Example 192]
49 | 8.2 | Cc1c(N(Cc2ccc(OC(F)(F)F)cc2)S(=O)(=O)c2ccc(C(=O)O)cc2)nc(C2CC2)c2c(C)cccc12 [Example 215]
50 | 8.1 | CCc1nc(N(Cc2ccc(OC(F)(F)F)cc2)S(=O)(=O)c2ccc(C(=O)O)cc2)c(C)c2ccccc12 [Example 214]
51 | 4.6 | Cc1c(N(Cc2ccc(C(F)(F)C3CC3)cc2)S(=O)(=O)c2ccc(C(=O)O)cc2)ncc2ccccc12 [Example 191]
52 | 4.6 | Cc1c(N(Cc2sc3ccccc3c2Cl)S(=O)(=O)c2ccc(C(=O)O)cc2)ncc2ccccc12 [Example 197]
53 | 4.3 | Cc1cc2cccc(Cl)c2nc1N(Cc1ccc(OC(F)(F)F)cc1)S(=O)(=O)c1ccc(C(=O)O)cc1 [Example 133]
54 | 4 | Cc1cc2ccccc2nc1N(Cc1ccc(C(F)(F)C2CC2)cc1)S(=O)(=O)c1ccc(C(=O)O)cc1 [Example 182]
55 | 3.9 | Cc1c(N(Cc2cc3cccc(Cl)c3s2)S(=O)(=O)c2ccc(C(=O)O)cc2)ncc2ccccc12 [Example 199]
56 | 3.8 | Cc1c(N(Cc2ccc(F)c(C(F)(F)F)c2)S(=O)(=O)c2ccc(C(=O)O)cc2)nc(C2CC2)c2ccccc12 [Example 132]
57 | 3.1 | Cc1cccc2cnc(N(Cc3ccc(OC(F)(F)F)cc3)S(=O)(=O)c3ccc(C(=O)O)cc3)c(C)c12 [Example 137]
58 | 3.1 | Cc1cc2ccccc2nc1N(Cc1ccc(C(F)(F)C2CC2)c(F)c1)S(=O)(=O)c1ccc(C(=O)O)cc1 [Example 204]
59 | 2.9 | Cc1c(N(Cc2ccc(CC3CC3)c(F)c2)S(=O)(=O)c2ccc(C(=O)O)cc2)ncc2ccccc12 [Example 170]
60 | 2.3 | O=C(O)c1ccc(S(=O)(=O)N(Cc2ccc(OC(F)(F)F)cc2)c2ncc3ccccc3c2Br)cc1 [Example 154]
61 | 1.5 | Cc1c(N(Cc2ccc(C(F)(F)C3CC3)c(F)c2)S(=O)(=O)c2ccc(C(=O)O)cc2)ncc2ccccc12 [Example 203]
62 | 1.4 | Cc1cc2ccccc2nc1N(Cc1ccc(C(F)(F)C2CC2)c(Cl)c1)S(=O)(=O)c1ccc(C(=O)O)cc1 [Example 202]
63 | 1 | Cc1c(N(Cc2ccc(C(F)(F)C3CC3)c(Cl)c2)S(=O)(=O)c2ccc(C(=O)O)cc2)nc(C2CC2)c2ccccc12 [Example 181]
64 | 1 | Cc1c(N(Cc2ccc(C(F)(F)C3(C)CC3)cc2)S(=O)(=O)c2ccc(C(=O)O)cc2)ncc2ccccc12 [Example 209]
